In patent publication US20210386738A1, “COMBINATION OF PRMT5 INHIBITORS AND BCL-2 INHIBITORS” (GLAXOSMITHKLINE INTELLECTUAL PROPERTY DEVELOPMENT LIMITED, priority 2018, published 2021):

Legend:
lymphoma cell line DB [1] = assay: Standard 6-day growth-death assay, DB; format: cell-based; settings: single agent or fixed 1:1 combination
Experimental: The majority cell lines were obtained from GSK BioCat group, American Type Culture Collection (ATCC), or the Deutsche Sammlung von Mikroorganismen and Zellbulturen (DSMZ). All cell lines were maintained in growth medium in T75 cm^2 flasks, incubated at 37° C. with 5% CO2 and split every 3 to 4 days. Growth media conditions and cell line information are detailed in Table 1. Cells were counted using the Vi-Cell Analyzer (Beckman Coulter ViCell) to obtain viable cell counts.
Optimal cell seeding density was determined for all cell lines by monitoring proliferation over a range of seeding densities in 384-well format and identifying the seeding density at which cells grew logarithmically throughout six days. 50 uL of cells per well were plated in 384-well plates at the optimal seeding density in preferred supplemented culture media. Three plates were prepared per cell line and incubated overnight at 37° C. in 5% CO2.
In these studies, lymphoma cell lines were treated with PRMT5 inhibitor, compound A and BCL-2 targeted inhibitor, ABT-199 single agent or in combination using a fixed 1:1 ratio of each inhibitor over a 20-point titration. For compound A single and fixed 1:1 ratio combination with ABT-199 cell proliferation assay, cells were treated in duplicate with a 20-point, two-fold dilution series of Compound A, ABT-199 (≥14 μM top dose) single or combo treatment, and ≤0.15% DMSO final concentration. Plates were incubated for six days at the conditions described above. Cell growth was measured using CellTiter-Glo (Promega) and luminescence signal was detected with a BioTek Synergy Neo microplate reader. A plate of untreated cells was read at the time of compound/biologic addition to determine the T0 value representing the starting number of cells. Data were fit with a four-parameter equation to generate a concentration response curve using Assay Client software.
Results were background corrected by subtraction of values from wells containing no cells, expressed as a percentage of the T0 value (value at time=0), and plotted against compound concentration. The T0 value was normalized to 100% and represents the number of cells present at the time of compound addition. The cellular response was determined for each compound using a 4- or 6-parameter curve fit of cell viability against concentration using Assay Client software. Growth IC50 (gIC50) values correspond to the concentration intersecting the mid-point of the growth window (between DMSO and T0 values). Growth IC100 (gIC100) values correspond to the concentration at which 100% growth inhibition is achieved, based on the growth window. The Ymin−T0 value, a measure of net population cell growth or death, is calculated by subtracting the T0 value (100%) from the Ymin value (%) that is determined from the fit of the concentration response curve. Death EC50 (dEC50) values correspond to the concentration at which 50% net cell death is observed.
Individual curves were quality checked for three criteria: outlier data points, cell growth (population doubling ≥1.5), and proper curve fitting. […] Individual curves were QC checked for outlier data points, cell growth (population doubling ≥1.5), and proper curve fitting. Obvious outlier data points were omitted only as needed to ensure proper curve fit.
For fixed ratio screening, combination activity was assessed by the fold change in gIC50 compared to the 2 single agent curves by dividing the compound ratio as necessary. Combinations showing >3-fold and >5-fold change from single agent are described as below: • Fold changes ≥5 are considered to represent strong synergy. • Fold changes between 3.0 and 4.9 are considered to represent weak synergy. • Fold changes <3 are considered to represent no synergy.

lymphoma cell line DB [2] = assay: Serial dilutions: fixed ABT-199 concentration with Compound A titration, six-day cell proliferation; format: cell-based; settings: for EC50 / IC50: 144 h
Experimental: Serial dilutions were performed for the combination to ascertain the change in gIC50, gIC100 and dEC50 when the inhibitors are used together in a PRMT5 inhibitor cell proliferation. A first compound plate was prepared where PRMT5 inhibitor, Compound A, was prepared with a 20-point, two-fold dilution series of compound A from column 1 to 20. A second compound plate was prepared using the BCL-2 inhibitor ABT-199. ABT-199 was titrated in a 16-point 2-fold dilution series from row A to Q. A third plate was then created by added equal volume of 12 ul (ABT-199) from each well in the second plate into the corresponding well in the first plate. The third plate comprised rows from A to Q, each row comprising a fixed concentration of ABT-199. Columns 1-20 comprised varying concentrations of compound A from the 20-point dilution. Plates were incubated for six days at the conditions described above. Lymphoma cell line DB was treated with the solution in each of the wells. Cell growth was measured using CellTiter-Glo (Promega) and luminescence signal was detected with a BioTek Synergy Neo microplate reader. A plate of untreated cells was read at the time of compound/biologic addition to determine the T0 value representing the starting number of cells. Data were fit with a four-parameter equation to generate a concentration response curve for each row using Assay Client software. A comparison was made across each row in the third plate to determine, when keeping a fixed concentration of ABT-199, what concentration of compound A is needed to reach the gIC50, gIC100 or dEC50 respectively and the fold change compared to treating the same cell with compound A alone.
Tables 4a-c show the results of the above serial dilution experiments wherein ‘fold change’ is the difference between the amount of compound A needed to achieve gIC50, gIC100 or dEC50 respectively, compared to the amount of compound A needed to achieve gIC50, gIC100 or dEC50 respectively when compound A is given as a single agent.

EC50 (lymphoma cell line DB [2]; single agent, six days, read-out: dEC50): > 7330 nM
IC50 (lymphoma cell line DB [2]; single agent, six days, read-out: gIC50): 631 nM
EC50 (lymphoma cell line DB [2]; with fixed ABT-199 1 nM, six days, read-out: Compound A required for dEC50): > 7330 nM
IC50 (lymphoma cell line DB [2]; with fixed ABT-199 1 nM, six days, read-out: compound A required for gIC50): 445 nM
EC50 (lymphoma cell line DB [2]; with fixed ABT-199 2 nM, six days, read-out: Compound A required for dEC50): > 7330 nM
IC50 (lymphoma cell line DB [2]; with fixed ABT-199 2 nM, six days, read-out: compound A required for gIC50): 509 nM
EC50 (lymphoma cell line DB [2]; with fixed ABT-199 4 nM, six days, read-out: Compound A required for dEC50): > 7330 nM
IC50 (lymphoma cell line DB [2]; with fixed ABT-199 4 nM, six days, read-out: compound A required for gIC50): 514 nM
EC50 (lymphoma cell line DB [2]; with fixed ABT-199 7 nM, six days, read-out: Compound A required for dEC50): > 7330 nM
IC50 (lymphoma cell line DB [2]; with fixed ABT-199 7 nM, six days, read-out: compound A required for gIC50): 449 nM
EC50 (lymphoma cell line DB [2]; with fixed ABT-199 14 nM, six days, read-out: Compound A required for dEC50): > 7330 nM
IC50 (lymphoma cell line DB [2]; with fixed ABT-199 14 nM, six days, read-out: compound A required for gIC50): 387 nM
EC50 (lymphoma cell line DB [2]; with fixed ABT-199 29 nM, six days, read-out: Compound A required for dEC50): > 7330 nM
IC50 (lymphoma cell line DB [2]; with fixed ABT-199 29 nM, six days, read-out: compound A required for gIC50): 351 nM
EC50 (lymphoma cell line DB [2]; with fixed ABT-199 57 nM, six days, read-out: Compound A required for dEC50): 5370 nM
IC50 (lymphoma cell line DB [2]; with fixed ABT-199 57 nM, six days, read-out: compound A required for gIC50): 247 nM
EC50 (lymphoma cell line DB [2]; with fixed ABT-199 115 nM, six days, read-out: Compound A required for dEC50): 4660 nM
IC50 (lymphoma cell line DB [2]; with fixed ABT-199 115 nM, six days, read-out: compound A required for gIC50): 209 nM
EC50 (lymphoma cell line DB [2]; with fixed ABT-199 229 nM, six days, read-out: Compound A required for dEC50): 4660 nM
IC50 (lymphoma cell line DB [2]; with fixed ABT-199 229 nM, six days, read-out: compound A required for gIC50): 115 nM
EC50 (lymphoma cell line DB [2]; with fixed ABT-199 458 nM, six days, read-out: Compound A required for dEC50): 3920 nM
IC50 (lymphoma cell line DB [2]; with fixed ABT-199 458 nM, six days, read-out: compound A required for gIC50): 119 nM
EC50 (lymphoma cell line DB [2]; with fixed ABT-199 916 nM, six days, read-out: Compound A required for dEC50): 2530 nM
IC50 (lymphoma cell line DB [2]; with fixed ABT-199 916 nM, six days, read-out: compound A required for gIC50): 78 nM
EC50 (lymphoma cell line DB [2]; with fixed ABT-199 1833 nM, six days, read-out: Compound A required for dEC50): 2390 nM
IC50 (lymphoma cell line DB [2]; with fixed ABT-199 1833 nM, six days, read-out: compound A required for gIC50): 74 nM
EC50 (lymphoma cell line DB [2]; with fixed ABT-199 3666 nM, six days, read-out: Compound A required for dEC50): 2250 nM
IC50 (lymphoma cell line DB [2]; with fixed ABT-199 3666 nM, six days, read-out: compound A required for gIC50): 80 nM
EC50 (lymphoma cell line DB [2]; with fixed ABT-199 7331 nM, six days, read-out: Compound A required for dEC50): 2300 nM
IC50 (lymphoma cell line DB [2]; with fixed ABT-199 7331 nM, six days, read-out: compound A required for gIC50): 15 nM
Compound: O=C(NC[C@H](O)CN1CCc2ccccc2C1)c1ccnc(NC2CCC2)c1 [Compound A]
EC50 (lymphoma cell line DB [1]; 144 h, average of n=2, read-out: dEC50): > 14700 nM
IC50 (lymphoma cell line DB [1]; 144 h, average of n=2, read-out: gIC50): 862 nM
Ymin-T0 (lymphoma cell line DB [1]; average of n=2): 194%
gIC100 (lymphoma cell line DB [1]; average of n=2): > 14.7 µM
Fold change over compound A single agent gIC50 (631 nM, most potent of the two agents) (lymphoma cell line DB [2]; single agent): 1.0
Fold change over compound A single agent gIC100 (6489 nM, most potent of the two agents) (lymphoma cell line DB [2]; single agent): 1.0
gIC100 (lymphoma cell line DB [2]; single agent, six days): 6.489 µM
Fold change over compound A single agent gIC50 (631 nM, most potent of the two agents) (lymphoma cell line DB [2]; with fixed ABT-199 1 nM): 1.4
Fold change over compound A single agent gIC100 (6489 nM, most potent of the two agents) (lymphoma cell line DB [2]; with fixed ABT-199 1 nM): 0.9
compound A required for gIC100 (lymphoma cell line DB [2]; with fixed ABT-199 1 nM, six days): 7.331 µM
Fold change over compound A single agent gIC50 (631 nM, most potent of the two agents) (lymphoma cell line DB [2]; with fixed ABT-199 2 nM): 1.2
Fold change over compound A single agent gIC100 (6489 nM, most potent of the two agents) (lymphoma cell line DB [2]; with fixed ABT-199 2 nM): 0.9
compound A required for gIC100 (lymphoma cell line DB [2]; with fixed ABT-199 2 nM, six days): 7.331 µM
